Data as given in patent US20230286919A1, “ISOQUINOLINE DERIVATIVES FOR USE IN THERAPY” (Vestlandets Innovasjonsselskap AS, priority 2020, published 2023).

Columns and labels:
STAT3 activity = experiment: STAT3 luciferase reporter assay in HEK293T cells with IL-6; format: cell-based, human; settings: 20 ng/ml IL-6, 24 hrs, compared with cryptotanshinone
Procedure: Luciferase activity was measured by the Dual Luciferase Assay Kit (Promega) using a Luminescence Microplate Reader (Biotek). Values were normalized to Renilla luciferase activity of DMSO vehicle.
All data are represented as the average±s.e.m (n=3). Significance was verified by using unpaired two-tailed Student's t-test. *p s 0.05.

DU145 cells = experiment: Flow cytometric analysis of cell apoptosis; format: cell-based, human; settings: 72 hrs
Procedure: The […] effect of compounds 323-1 and 323-2 was evaluated in DU145 cells.
Data are shown as representative results of three experiments.

[1] = test system: LPS-induced IL-10 and IL-12p70 secretion in dendritic cells; experiment: ELISA of secreted IL-10 and IL-12p70 in LPS-stimulated dendritic cells; format: cell-based, human; settings: 24 hrs
Procedure: Low platelet peripheral blood mononuclear cells (PBMCs) were isolated from peripheral blood of healthy donors by Ficoll-Paque density centrifugation. Monocytes were derived from the above PBMCs by immunomagnetic selection with CD14+ microbeads (Pan Monocyte Isolation Kit from Miltenyi Biotec) and seeded at s 0.5×10^6 monocytes/ml in CellGro medium supplemented with GM-CSF (100 ng/ml) and IL-4 (20 ng/ml) to obtain immature dendritic cells (iDCs). Cytokines were replenished after 72 hrs and 24 hrs after incubation, iDCs were stimulated with 30 ng/ml LPS to obtain mature dendritic cells (moDCs). Test compounds were added into the wells 1 hr prior to the LPS treatment and co-incubated with LPS for another 23 hrs. Supernatant was collected for the detection of secreted IL-10 and IL-12p70 using a standard ELISA kit and cells were collected and markers identified by flow cytometry.
The effects of compounds 323-1 and 323-2 and various controls on the LPS-induced expression of cytokines IL-10, IL-12p70, co-stimulatory molecules and maturation markers (CD80, CD83, CD86, HLA-DR, CCR7) and programmed death-ligand 1 (PD-L1) and programmed death-ligand 2 (PD-L2) were determined.

STAT3 = experiment: DARTS (drug affinity responsive target stability) assay in EPT3M1-STAT3 cell lysates; format: binding, human; settings: 200 μM
Procedure: EPT3M1-STAT3 cells were lysed with cold M-PER buffer (Thermo Fisher Scientific, Pierce cat.78501) containing protease (Roche, Basel, Switzerland, cat. no. 11836153001) and phosphatase inhibitors (Pierce cat. no. 78420) and centrifugated (18,000×g for 10 min at 4° C.). Lysates were diluted to the same final volume and proteolysed in TNC buffer [50 mM Tris-HCl (pH 8.0), 50 mM NaCl, 10 mM CaCl2]. 200 μM 323-1 or 200 μM 323-2 or the same volume of DMSO were added and incubated for 1 hour at RT. Pronase solution (1.25 mg/ml, 1:100 stock solution) was diluted serially by mixing with 1×TNC buffer to create 1:300, 1:1000, 1:3000 and 1:10000 Pronase stock aliquots. Pronase was added into both DMSO and drug groups and incubated for 30 min at RT. Digestion was stopped by adding 4× loading buffer and heating to 90° C. for 10 min immediately prior to the Western blot assay according to Lomenick, et al. (Proc Natl Acad Sci USA, 2009; 106: 21984-9) and Lomenick wt al. (ACS Chem Biol. 2011; 6: 34-46). […]

[2] = test system: PC3, 22Rv1, LNCaP, EPT3-M1-STAT3-GFP cells; experiment: MTS cell proliferation assay; format: cell-based, human; settings: FIGS. 1-4
Procedure: PC3, 22Rv1, LNCaP, EPT3-M1-STAT3 cells were seeded in 96-well plates for 24 hrs followed by treatment with different doses of 323-1 or 323-2. MTS assay was done after 3 days by adding 10 μl/well CellTiter 96@ AQueous One Solution Reagent (Promega, Madison, Wis., USA) for 4 hrs and the absorbance at 490 nm recorded using a Biotek machine.
To obtain the results shown in FIGS. 1-4, different cell lines were treated with indicated doses of compounds 323-1 and 323-2 for 72 hrs. All data are represented as the average±s.e.m (n=3). Significance was verified by using unpaired two-tailed Student's t-test. *p s 0.05 The total synthesis of compounds 323-1 and 323-2 was conducted as previously reported by Zhang et al. (Journal of the American Chemical Society. 2017; 139: 5558-67). The chemical structures of compounds 323-1 and 323-2 were validated by ^1H NMR, ^13C NMR.

STAT3 dimerization = target: T1, STAT3 dimerization (Homo sapiens, UniProt P40763); experiment: Co-immunoprecipitation of HA-STAT3 and FLAG-STAT3 in 293T cells; format: cell-based; settings: 50 μM, 24 hours, compared with S3I-201 (200 μM)
T1 construct: expressed in transfected cells; host or cells: 293T cells
T1 sequence (P40763 whole entry): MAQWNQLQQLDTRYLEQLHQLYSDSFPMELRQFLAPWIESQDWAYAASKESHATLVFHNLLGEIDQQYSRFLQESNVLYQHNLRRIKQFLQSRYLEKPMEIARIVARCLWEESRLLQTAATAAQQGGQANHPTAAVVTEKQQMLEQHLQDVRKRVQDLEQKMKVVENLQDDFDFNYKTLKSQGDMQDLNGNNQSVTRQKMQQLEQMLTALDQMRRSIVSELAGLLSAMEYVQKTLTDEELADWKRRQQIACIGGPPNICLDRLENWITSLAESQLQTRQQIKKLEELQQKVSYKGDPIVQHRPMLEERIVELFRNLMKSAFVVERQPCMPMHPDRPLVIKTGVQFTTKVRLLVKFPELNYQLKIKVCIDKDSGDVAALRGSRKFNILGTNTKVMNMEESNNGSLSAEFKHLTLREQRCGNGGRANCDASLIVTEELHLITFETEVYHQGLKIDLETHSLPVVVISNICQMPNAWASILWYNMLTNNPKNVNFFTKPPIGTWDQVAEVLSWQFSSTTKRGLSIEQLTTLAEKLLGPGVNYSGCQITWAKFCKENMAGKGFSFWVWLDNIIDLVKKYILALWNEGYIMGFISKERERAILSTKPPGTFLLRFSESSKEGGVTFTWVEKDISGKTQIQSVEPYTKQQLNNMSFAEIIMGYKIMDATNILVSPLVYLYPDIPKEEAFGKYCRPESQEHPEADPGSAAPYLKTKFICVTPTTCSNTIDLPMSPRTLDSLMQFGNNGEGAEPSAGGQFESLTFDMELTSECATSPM
Procedure: 293T cells were collected in the medium and centrifuged at 800 g x 5 min, then washed with cold PBS twice before adding 500 μl Pierce™ IP Lysis Buffer (Thermofisher Scientific, 87787), containing protease and phosphatase inhibitor cocktail without DTT (Roche, 11836153001), into the cells. Cell lysates were passed several times through a 27^1/2-gauge needle to disrupt the nuclei. 1-2 mg extracts were added with pre-cleaned 50 μL slurry of Pierce™ […] Magnetic Agarose (Thermoscientific, A36797), then supernatant were collect with magnet and immunoprecipitated (IP) at RT on a rotator for 30 min. Beads were boiled at 95° C. for 5 min followed by adding the 100 μL of 1× Non-reducing Sample Buffer (Thermofisher Scientific, 39000) into beads. The supernatant was collected with a magnet and then added 5 μL of 1M DTT (Thermoscientific, P2325) into sample prior to proceeding the immunoblotting.
Nuclear translocation of the STAT3 dimers mediates the STAT3 transcriptional activity.

[3] = test system: phosphorylated STAT3 (Tyr705) over pSTAT1 (S727); experiment: Western blot, pSTAT3 (Tyr705) and pSTAT1 (S727) in DU145 cells; format: cell-based, human; settings: 24 hrs

For C[C@@H]1CCC(c2cc3c4c(cncc4c2)[C@@H](C)C3)=C1C=O [323-2, (15S,2R)-Delavatine A], the “Inhibitory effect on STAT3 activation (luciferase reporter)” value (STAT3 activity) was “stronger inhibitory effect on STAT3 activation than cryptotanshinone”, the Induction of apoptosis (DU145 cells) was “appeared to induce apoptosis” and the “Induction of apoptosis compared with cryptotanshinone” value (DU145 cells) was “much weaker than by cryptotanshinone”. For the same molecule, the “Secretion of IL-10 and IL-12p70” value [1] was “significantly reduced”, the “Digestion of non-target proteins STAT1, JAK2, Src, β-actin” value (STAT3) was “unchanged” and the “Protection of STAT3 against pronase digestion” value (STAT3) was “protection of the target protein STAT3”. The “Inhibition of proliferation of tumor-initiating and other tumor cells” value [2] was “efficiently inhibit the proliferation”, the “Dimerization of STAT3 (HA-STAT3/FLAG-STAT3)” value (STAT3 dimerization) was “could disrupt the dimerization of STAT3” and the “Expression of phosphorylated STAT3 at Tyr705 compared with S3I-201” value [3] was “better effect than S3I-201”. The “Selectivity, phosphorylated STAT3 (Tyr705) over pSTAT1 (S727)” value [3] was “selective inhibitory effect”.
